{"source": "paper PMC5737456", "about": "(Pain, 2017)", "assay_type_in_all_cases": "cell-based", "key": {"human TRESK (hTRESK) [1]": {"molecular_target": "T1, human TRESK (hTRESK) (Homo sapiens, UniProt Q7Z418)", "T1 sequence (Q7Z418 1-384)": "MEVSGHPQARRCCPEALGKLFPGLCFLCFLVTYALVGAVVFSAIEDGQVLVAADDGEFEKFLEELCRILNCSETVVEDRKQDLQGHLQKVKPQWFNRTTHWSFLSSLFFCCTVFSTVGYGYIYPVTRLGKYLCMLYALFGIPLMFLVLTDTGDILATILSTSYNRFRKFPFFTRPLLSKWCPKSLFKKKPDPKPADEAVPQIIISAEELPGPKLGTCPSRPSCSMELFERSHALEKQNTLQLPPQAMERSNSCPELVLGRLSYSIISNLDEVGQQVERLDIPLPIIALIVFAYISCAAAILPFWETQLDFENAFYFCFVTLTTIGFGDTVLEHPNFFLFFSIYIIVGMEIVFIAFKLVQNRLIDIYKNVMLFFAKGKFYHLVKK", "test": "whole-cell patch clamp in transfected HEK293 cells, single concentration […]", "conditions": "HEK293, read-out: % inhibition at 20 μM"}, "human TRESK (hTRESK) [2]": {"molecular_target": "T1, human TRESK (hTRESK)", "test": "whole-cell patch clamp in transfected HEK293 cells, dose-response"}, "mouse TRESK (mTRESK)": {"molecular_target": "T2, mouse TRESK (mTRESK) (Mus musculus, UniProt Q6VV64)", "T2 sequence (Q6VV64 1-394)": "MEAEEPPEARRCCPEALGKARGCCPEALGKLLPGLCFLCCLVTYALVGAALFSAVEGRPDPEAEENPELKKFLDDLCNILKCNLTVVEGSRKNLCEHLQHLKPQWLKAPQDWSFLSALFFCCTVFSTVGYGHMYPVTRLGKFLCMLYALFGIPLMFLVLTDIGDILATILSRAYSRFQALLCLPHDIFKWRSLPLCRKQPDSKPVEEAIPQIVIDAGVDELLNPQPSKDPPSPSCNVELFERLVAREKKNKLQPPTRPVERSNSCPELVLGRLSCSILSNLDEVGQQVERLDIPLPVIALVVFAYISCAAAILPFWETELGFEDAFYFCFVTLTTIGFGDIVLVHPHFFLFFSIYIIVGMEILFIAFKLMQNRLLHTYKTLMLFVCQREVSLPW", "test": "whole-cell patch clamp dose-response"}, "mouse TRAAK (mTRAAK)": {"molecular_target": "T3, mouse TRAAK (mTRAAK) (Mus musculus, UniProt O88454)", "T3 sequence (O88454 1-398)": "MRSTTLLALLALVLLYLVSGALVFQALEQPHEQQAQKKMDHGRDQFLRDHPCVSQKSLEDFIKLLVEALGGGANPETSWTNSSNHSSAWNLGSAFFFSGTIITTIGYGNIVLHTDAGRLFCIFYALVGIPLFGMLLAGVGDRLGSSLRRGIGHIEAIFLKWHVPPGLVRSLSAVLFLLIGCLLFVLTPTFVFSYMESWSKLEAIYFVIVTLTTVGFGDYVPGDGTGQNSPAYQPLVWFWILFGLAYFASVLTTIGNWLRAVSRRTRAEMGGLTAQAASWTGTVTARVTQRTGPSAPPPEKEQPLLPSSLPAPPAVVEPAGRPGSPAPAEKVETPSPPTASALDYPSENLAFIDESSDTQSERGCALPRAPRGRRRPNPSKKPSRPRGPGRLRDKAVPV", "test": "whole-cell patch clamp in transfected HEK293 cells, dose-response"}, "human TREK-2 (hTREK-2)": {"molecular_target": "T4, human TREK-2 (hTREK-2) (Homo sapiens, UniProt P57789)", "T4 sequence (P57789 1-538)": "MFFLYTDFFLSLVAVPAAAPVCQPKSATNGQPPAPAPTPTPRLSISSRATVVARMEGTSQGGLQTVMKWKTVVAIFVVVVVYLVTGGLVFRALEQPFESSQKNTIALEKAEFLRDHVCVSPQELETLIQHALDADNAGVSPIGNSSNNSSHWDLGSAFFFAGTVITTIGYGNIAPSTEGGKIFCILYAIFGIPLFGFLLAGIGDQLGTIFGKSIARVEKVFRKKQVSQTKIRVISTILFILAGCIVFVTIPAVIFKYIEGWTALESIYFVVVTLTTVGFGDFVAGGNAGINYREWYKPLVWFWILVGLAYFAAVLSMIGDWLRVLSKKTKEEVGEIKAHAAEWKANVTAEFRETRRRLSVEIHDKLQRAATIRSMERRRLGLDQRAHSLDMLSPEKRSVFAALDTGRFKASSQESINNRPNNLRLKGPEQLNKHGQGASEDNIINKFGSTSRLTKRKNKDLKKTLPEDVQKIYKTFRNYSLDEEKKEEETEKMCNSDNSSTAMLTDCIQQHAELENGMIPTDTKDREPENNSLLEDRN", "test": "whole-cell patch clamp in transfected HEK293 cells, dose-response"}, "rat TRESK": {"molecular_target": "T5, rat TRESK (Rattus norvegicus, UniProt Q6Q1P3)", "T5 sequence (Q6Q1P3 1-405)": "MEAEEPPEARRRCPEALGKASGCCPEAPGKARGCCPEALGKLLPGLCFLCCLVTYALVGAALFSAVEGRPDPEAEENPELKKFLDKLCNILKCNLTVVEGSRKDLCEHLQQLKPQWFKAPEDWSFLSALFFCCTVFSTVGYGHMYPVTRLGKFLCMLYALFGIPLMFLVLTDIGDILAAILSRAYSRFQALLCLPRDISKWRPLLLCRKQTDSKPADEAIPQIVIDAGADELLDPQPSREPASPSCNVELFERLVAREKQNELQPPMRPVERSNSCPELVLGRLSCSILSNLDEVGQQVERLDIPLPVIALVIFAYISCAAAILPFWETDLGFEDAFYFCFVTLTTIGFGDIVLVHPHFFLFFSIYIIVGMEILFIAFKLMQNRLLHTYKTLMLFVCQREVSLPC", "test": "whole-cell patch clamp in transfected HEK293 cells, […]"}}}
{"smiles": "CC1(C)C(C=C(Cl)Cl)C1C(=O)OCc1cccc(Oc2ccccc2)c1", "note": "(stereo not shown) [PM, permethrin]", "values": [{"measurement": "inhibition at 20 µM", "setting": "human TRESK (hTRESK) [1]", "value": 27, "unit": "%"}]}
{"smiles": "CC(C)=CC1C(C(=O)OCN2C(=O)C3=C(CCCC3)C2=O)C1(C)C", "note": "(stereo not shown) [TM, Tetramethrin]", "values": [{"measurement": "IC50", "setting": "human TRESK (hTRESK) [2]", "value": 10.7, "unit": "µM"}, {"measurement": "IC50", "setting": "mouse TRESK (mTRESK)", "value": 34.9, "unit": "µM"}, {"measurement": "IC50", "setting": "mouse TRAAK (mTRAAK)", "value": 12.6, "unit": "µM"}, {"measurement": "IC50", "setting": "human TREK-2 (hTREK-2)", "value": 75.6, "unit": "µM"}, {"measurement": "whole-cell patch clamp in transfected HEK293 cells, 20 μM", "setting": "rat TRESK", "value": "TM was also tested on rat and mouse TRESK orthologs, with similar inhibitory effects"}]}
{"smiles": "CC1(C)[C@H](C(=O)O[C@H](C#N)c2cccc(Oc3ccccc3)c2)[C@@H]1C=C(Br)Br", "note": "[DM, deltamethrin]", "values": [{"measurement": "inhibition at 20 µM", "setting": "human TRESK (hTRESK) [1]", "value": 30, "unit": "%"}]}
